The source made the active and inactive calls. The calls are words filed in the database; no cut-off is given here.
How the values were obtained:
AGS [1] = assay: Antiproliferative activity against human AGS cells assessed as reduction in cell viability incubated for 72 hrs by CCK-8 assay; format: functional, cell-based
MGC-803 [2] = assay: Antiproliferative activity against human MGC-803 cells assessed as reduction in cell viability measured after 72 hrs by CCK-8 assay; format: functional, cell-based; settings: MGC-803, 72 h
[3] = molecular target: T1, Signal transducer and activator of transcription 3 (Homo sapiens, UniProt P40763); assay: Binding affinity to full length wild type STAT3-SH2 domain (unknown origin) assessed as association constant by SPR analysis
T1 sequence (P40763 whole entry, the tested form may be a part): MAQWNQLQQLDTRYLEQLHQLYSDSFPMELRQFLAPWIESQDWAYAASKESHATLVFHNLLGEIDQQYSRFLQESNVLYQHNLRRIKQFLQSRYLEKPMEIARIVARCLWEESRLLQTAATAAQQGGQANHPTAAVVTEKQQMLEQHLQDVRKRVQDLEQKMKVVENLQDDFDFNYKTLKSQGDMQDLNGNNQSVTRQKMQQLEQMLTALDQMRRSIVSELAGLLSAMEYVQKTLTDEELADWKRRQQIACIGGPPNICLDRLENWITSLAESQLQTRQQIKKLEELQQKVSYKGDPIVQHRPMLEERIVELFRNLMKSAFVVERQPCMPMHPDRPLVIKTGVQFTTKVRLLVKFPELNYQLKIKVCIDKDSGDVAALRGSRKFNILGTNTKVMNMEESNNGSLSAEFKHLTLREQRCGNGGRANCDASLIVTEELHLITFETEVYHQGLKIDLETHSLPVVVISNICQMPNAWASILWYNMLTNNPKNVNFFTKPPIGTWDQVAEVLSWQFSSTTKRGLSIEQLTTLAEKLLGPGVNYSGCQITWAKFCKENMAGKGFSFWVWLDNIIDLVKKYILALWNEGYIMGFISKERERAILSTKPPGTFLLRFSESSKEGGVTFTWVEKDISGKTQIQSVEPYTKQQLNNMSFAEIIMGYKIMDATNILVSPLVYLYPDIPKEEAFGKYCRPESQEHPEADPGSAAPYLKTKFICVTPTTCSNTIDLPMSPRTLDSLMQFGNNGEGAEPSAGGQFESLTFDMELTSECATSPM

[4] = molecular target: T1, Signal transducer and activator of transcription 3; assay: Binding affinity to full length wild type STAT3-SH2 domain (unknown origin) in human MGC-803 cells assessed as thermal stabilization of protein at 37 to 53 degreeC at 5 uM incubated for 3 hrs by cellular thermal shift assay; format: cell-based
[5] = molecular target: T1, Signal transducer and activator of transcription 3; assay: Inhibition of STAT3 transcriptional activity transfected in HEK293T cells at 3 to 5 uM incubated for 24 hrs by dual-ludferase reporter gene assay; format: cell-based; settings: dose 3-5 µM
[6] = Antiproliferative activity against […] H9c2 cells assessed as reduction in cell viability incubated for 72 hrs by CCK-8 assay; format: toxicity, cell-based; settings: rat
AGS [7] = assay: Induction of apoptosis in human AGS cells at 3 uM incubated for 72 hrs by V-FITC/PI staining based flow cytometry assay; format: functional
MGC-803 [8] = assay: Induction of apoptosis in human MGC-803 cells at 5 uM incubated for 72 hrs by V-FITC/PI staining based flow cytometry assay; format: functional
MGC-803 [9] = assay: Antitumor activity against human MGC-803 cells xenografted in BALB/c nude mouse assessed as tumor growth inhibition at 15 mg/kg, ip measured every day for 20 days; format: functional; set-up: scale not given: the % may be the effect or the level left; settings: time 20 day
[10] = Toxicity in BALB/c nude mouse xenografted with MGC-803 cells assessed as effect on body weight at 15 mg/kg, ip measured every day for 20 days; format: organism-based; settings: in vivo, 480 h, time 20 day
[11] = Toxicity in BALB/c nude mouse xenografted with MGC-803 cells assessed as effect on body weight at 5 mg/kg, ip measured every day for 20 days; format: organism-based; settings: in vivo, 480 h, time 20 day
MGC-803 [12] = assay: Antiproliferative activity against human MGC-803 cells assessed as reduction in cell viability pretreated for 12 hrs followed by compound washout and measured after 24 hrs; format: functional, cell-based

Row | IC50 (AGS [1]) [µM] | IC50 (MGC-803 [2]) [µM] | Ka [3] | Activity [4] | inhibition [5] | SMILES | IC50 at 72 h [6] [µM] | Activity (AGS [7]) [%] | Activity (MGC-803 [8]) [%] | Activity (MGC-803 [9]) [%] | Activity [10] | Activity [11] | Activity (MGC-803 [12])
1 | 1.72 | 3.13 |  |  |  | C[C@H](C(=O)N(Cc1ccc(C2CCCCC2)cc1)c1ccc(B(O)O)cc1)N(C)S(=O)(=O)c1c(F)c(F)c(F)c(F)c1F |  |  |  |  |  |  | 
2 | 1.98 | 4.83 |  |  |  | O=C([C@H]1CCN1S(=O)(=O)c1c(F)c(F)c(F)c(F)c1F)N(Cc1ccc(C2CCCCC2)cc1)c1ccc(B(O)O)cc1 |  |  |  |  |  |  | 
3 | 5.42 | 8.51 | 3.02 10^3/M/s | Active | Active | CN(CC(=O)N(Cc1ccc(C2CCCCC2)cc1)c1ccc(C(=O)O)cc1)S(=O)(=O)c1c(F)c(F)c(F)c(F)c1F | 10.2 | 16.2 | 5.7 | 49.05 | Non-Toxic | Non-Toxic | Active

From ChEMBL document CHEMBL5214948, “Boronic Acid: A Novel Pharmacophore Targeting Src Homology 2 (SH2) Domain of STAT3” (J Med Chem, 2022)
